The values below come from patent publication US20220370464A1, “COMPOSITIONS AND METHODS OF TREATING OR PREVENTING OCULAR INFECTIONS WITH FILOCICLOVIR” (Microbiotix, Inc., priority 2019, published 2022).

One test relates to AdV 7. The test can be described thus: Antiviral EC50 against AdV 7 (method not given). The note with it: Human mastadenovirus B; AdV 7, summary table. The format is cell-based, adenovirus 7.
For the next test, the system named is AdV6. The test can be described thus: Immunofluorescence assay of AdV6-infected A549 cells (DBP and hexon staining). The following applies: 27 hours post-infection. The format is cell-based, adenovirus 6. The procedure: Human A549 cells on glass coverslips in 6-well plates were infected at an MOI of 5 PFU/cell with either AdV5 or AdV6 or were mock-infected. After 1 hour, filociclovir was added to a final concentration of 40, 10, 4, or 0 μM. At 27 hours post-infection, the A549 cells were fixed in paraformaldehyde (3.7% in PBS) and permeabilized with methanol. Cells were stained for the Adenovirus DNA-binding protein (DBP; green staining in images) and adenovirus hexon (red staining in images). DBP staining will be […] and uniform during early AdV infection (prior to AdV DNA replication). DBP associates with replication centers as the infection progresses. The replication centers are initially small “dots” (each dot results from one incoming AdV genome). The replication centers will expand and “multiply” as DNA replication takes place. The nuclei become enlarged and misshapen as infection progresses. AdV hexon, the most abundant component of the AdV viral capsid, is not expressed until after DNA replication is taking place and is therefore considered to be a “late” AdV protein.

Another test concerns CMV. The following applies: β Herpesvirus, cited from earlier work.

Where two headings read alike, the source gives them in different places.

Turning to `Nc1nc2c(ncn2/C=C2/CC2(CO)CO)c(=O)[nH]1` [Filociclovir, 2-amino-9-{(Z)-[2,2-bis(hydroxymethyl)cyclopropylidene]methyl}-3,9-dihydro-6H-purin-6-one], the EC50 in the test on AdV 7 was 1000 nM; in the test with CMV (listed as filociclovir), at most 10000 nM; with CMV, 1000 ± 600 nM. Besides, the hexon-positive cells result with AdV6 (AdV6, A549, 4 μM) is reported as “Some hexon-positive cells”; with AdV6 (AdV6, A549, 10 μM) it was “extremely few hexon-positive cells”; with AdV6 (AdV6, A549, 40 μM), “No hexon-positive cells”.

For orientation: EC50 means the concentration that produces a half-maximal response.
